Molecular target: CYP3A4 (Homo sapiens, UniProt P08684)
Experiment: Inhibition of CYP3A4 at 10 uM by fluorimetry assay in presence of NADP; values are per cent of control

Chain of CYP3A4 (P08684 whole entry): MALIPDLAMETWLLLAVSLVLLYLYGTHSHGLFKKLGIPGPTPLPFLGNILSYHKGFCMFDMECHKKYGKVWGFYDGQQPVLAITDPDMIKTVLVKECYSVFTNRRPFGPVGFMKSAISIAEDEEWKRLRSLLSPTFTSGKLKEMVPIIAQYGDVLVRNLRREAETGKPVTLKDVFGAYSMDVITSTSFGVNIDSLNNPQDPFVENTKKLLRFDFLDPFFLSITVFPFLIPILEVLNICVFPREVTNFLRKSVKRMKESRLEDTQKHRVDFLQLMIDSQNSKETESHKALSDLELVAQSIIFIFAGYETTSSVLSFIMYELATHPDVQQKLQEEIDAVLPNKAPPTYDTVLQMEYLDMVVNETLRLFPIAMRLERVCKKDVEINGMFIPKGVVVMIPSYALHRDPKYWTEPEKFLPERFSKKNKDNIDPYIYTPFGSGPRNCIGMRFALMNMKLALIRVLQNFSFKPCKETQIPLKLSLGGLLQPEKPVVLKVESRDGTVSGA

SMILES	residual activity at 10 µM
N[C@@H](CC(=O)N1N=CCC1C(=O)NCc1ccccc1)Cc1cc(F)c(F)cc1F (stereo not given in full)	18.8%
CCOC(=O)COc1ccc(NC(=O)C2CC=NN2C(=O)C[C@H](N)Cc2cc(F)c(F)cc2F)cc1 (stereo not given in full)	6.9%
N[C@@H](CC(=O)N1N=CCC1C(=O)Nc1ccc(OCC(=O)O)cc1)Cc1cc(F)c(F)cc1F (stereo not given in full)	59.3%

Continued, values first:

residual activity at 10 µM	SMILES
62%	N[C@@H](CC(=O)N1N=CCC1C(=O)NCc1ccc(C(=O)O)cc1)Cc1cc(F)c(F)cc1F (stereo not given in full)
4.5%	Nc1ccc(CNC(=O)C2CC=NN2C(=O)C[C@H](N)Cc2cc(F)c(F)cc2F)cc1 (stereo not given in full)

From ChEMBL document CHEMBL1156717, “Synthesis and biological evaluation of pyrazoline analogues with beta-amino acyl group as dipeptidyl peptidase IV inhibitors” (Eur J Med Chem, 2008)
